Numbered stars: 1 amine (or outer) side, 2 acyl side, 3 side chain; on linkers, the order of the positions; unused ones are H or OH. Bridge positions count the residues as written; N and C are the ends. Square brackets hold non-standard residues; d marks the D form. Side chains are listed from the residue outwards. Peptide text beside a SMILES is read from it. * marks the point of attachment. C18 diacid = O=C(O)CCCCCCCCCCCCCCCCC(=O)*; γGlu = O=C(O)[C@H](CCC(=O)[*:2])N[*:1]; αMeF = C[C@](N)(Cc1ccccc1)C(=O)O; Aib = CC(C)(N)C(=O)O
How the values were obtained:
[1] = Thioflavin T fibrillation assay; type: physicochemical; conditions: 1 mg/mL in 25 mM sodium acetate buffer pH 4.0, 37° C., 6 days, orbital shaking; >144 h = no increase
Procedure, shortened: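 Peptides at 1 mg/mL in 25 mM sodium acetate pH 4.0 were mixed with ThT (0.25 mM stock) and held 6 days at 37 °C with intermittent orbital shaking at 500–750 rpm. Fluorescence (ex 444/em 480 nm) was read every 30 min, with buffer baseline correction and 5 replicates. Value: mean time to a detectable fluorescence increase.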

[2] = tested on: lean rats; assay: Rat acute food intake study; type: in vivo, Sprague Dawley rats; conditions: 20 nmol/kg subcutaneously
Procedure: Male Sprague Dawley rats were obtained from Taconic Denmark, ApS at approximately 7 weeks of age. . . . Rats were implanted with a microchip for identification, housed 4/cage with enrichment, free access to food and water, and allowed one week acclimatisation while non-invasive characterization was performed. Rats were on a 12:12 light:dark cycle that switches at 1 pm:1 am. Food intake was monitored via the HM2 system (Lafayette Instrument) that allows for monitoring in a home cage. As each rat enters an access tunnel to feed, an IR beam is broken, and the implanted microchip is read. Resulting changes to food weight is then assigned to the specific animal. Social order has shown no impact to overall feeding patterns and amounts.
Rats were sorted into groups based on Day-1 body weight and 24-hour accumulated food intake (n=7 per group). On Day 0 rats were weighed, then fasted for 6 hours. Thirty (30) minutes prior to the reintroduction of food, rats were dosed subcutaneously (5 ml/kg) with 20 nmol/kg of test compound or 60 nmol/kg peptide 1 (pramlintide) diluted in an appropriate vehicle, after which food was returned, and lights went out. Automated food intake was monitored for the following 3 days, and rats were weighed once per day.
Food intake per rat was batched into 1-hour intervals and integrated into Gubra's GubraView data management system. Discrete food intake data was exported into MS Excel from which cumulative food intake data was generated. Cumulative food intake data was then transposed into GraphPad Prism (v8.0.1) for analysis of dark period feeding

| Structure (SMILES) | Time taken to detect increase in fluorescence intensity [1] | Cummulative food intake (% vehicle treated intake) At 12 h [2] | Cummulative food intake (% vehicle treated intake) At 48 h [2] | Cummulative food intake (% vehicle treated intake) At 24 h ([2]; at 24 h) |
| --- | --- | --- | --- | --- |
| CC[C@H](C)[C@H](NC(=O)[C@@H]1CCCN1C(=O)CNC(=O)[C@](C)(Cc1ccccc1)NC(=O)[C@H](CC(N)=O)NC(=O)[C@H](CC(N)=O)NC(=O)[C@H](CO)NC(=O)[C@H](CO)NC(=O)[C@H](Cc1c[nH]cn1)NC(=O)[C@H](CCCNC(=N)N)NC(=O)[C@H](CC(C)C)NC(=O)[C@H](Cc1ccccc1)NC(=O)[C@H](CC(N)=O)NC(=O)[C@H](C)NC(=O)[C@H](CC(C)C)NC(=O)[C@H](CCCNC(=N)N)NC(=O)[C@H](CCC(N)=O)NC(=O)[C@@H](NC(=O)[C@H](C)NC(=O)[C@@H]1CSSC[C@H](NC(=O)[C@@H](N)CCCCNC(=O)CC[C@H](NC(=O)CC[C@H](NC(=O)CCCCCCCCCCCCCCCCC(=O)O)C(=O)O)C(=O)O)C(=O)N[C@@H](CC(N)=O)C(=O)N[C@@H]([C@@H](C)O)C(=O)N[C@@H](C)C(=O)N[C@@H]([C@@H](C)O)C(=O)N1)[C@@H](C)O)C(=O)N[C@@H](CC(C)C)C(=O)N1CCC[C@H]1C(=O)N1CCC[C@H]1C(=O)N[C@H](C(=O)N[C@@H](CC(N)=O)C(=O)N[C@H](C(=O)NCC(=O)N[C@@H](CO)C(=O)N[C@@H](CC(N)=O)C(=O)N[C@H](C(=O)N[C@@H](Cc1ccc(O)cc1)C(N)=O)[C@@H](C)O)C(C)C)[C@@H](C)O [Peptide 20, K(γE-γE-C18diacid)[CNTATC]ATQRLANFLRHSSNN(αMePhe)GPILPPTNVGSNTY-amide] (H-K([γGlu-γGlu-C18 diacid])CNTATCATQRLANFLRHSSNN[αMeF]GPILPPTNVGSNTY-NH2; disulfide 2-7; N-terminus assumed) | >144 h | 27 % vehicle treated intake | – | – |
| CC[C@H](C)[C@H](NC(=O)[C@@H]1CCCN1C(=O)CNC(=O)[C@H](Cc1ccccc1)NC(=O)[C@H](CC(N)=O)NC(=O)C(C)(C)NC(=O)[C@H](CO)NC(=O)[C@H](CO)NC(=O)[C@H](Cc1c[nH]cn1)NC(=O)[C@@H](NC(=O)[C@H](CC(C)C)NC(=O)[C@H](Cc1ccccc1)NC(=O)[C@H](CC(N)=O)NC(=O)[C@H](C)NC(=O)[C@H](CC(C)C)NC(=O)[C@H](CCCNC(=N)N)NC(=O)[C@H](CCC(N)=O)NC(=O)[C@@H](NC(=O)[C@H](C)NC(=O)[C@@H]1CSSC[C@H](NC(=O)[C@H](CCCCN)NC(=O)[C@@H](N)CCCCNC(=O)CC[C@H](NC(=O)CCCCCCCCCCCCCCCCC(=O)O)C(=O)O)C(=O)N[C@@H](CC(N)=O)C(=O)N[C@@H]([C@@H](C)O)C(=O)N[C@@H](C)C(=O)N[C@@H]([C@@H](C)O)C(=O)N1)[C@@H](C)O)C(C)C)C(=O)N[C@@H](CC(C)C)C(=O)N1CCC[C@H]1C(=O)N1CCC[C@H]1C(=O)N[C@H](C(=O)N[C@@H](CC(N)=O)C(=O)N[C@H](C(=O)NCC(=O)N[C@@H](CO)C(=O)N[C@@H](CC(N)=O)C(=O)N[C@H](C(=O)N[C@@H](Cc1ccc(O)cc1)C(N)=O)[C@@H](C)O)C(C)C)[C@@H](C)O [Peptide 35, K(γE-C18diacid)K[CNTATC]ATQRLANFLVHSS(Aib)NFGPILPPTNVGSNTY-amide] (H-K([γGlu-C18 diacid])KCNTATCATQRLANFLVHSS[Aib]NFGPILPPTNVGSNTY-NH2; disulfide 3-8; N-terminus assumed) | – | – | 72 % vehicle treated intake | – |
| CC[C@H](C)[C@H](NC(=O)[C@@H]1CCCN1C(=O)CNC(=O)[C@H](Cc1ccccc1)NC(=O)[C@H](CC(N)=O)NC(=O)[C@H](CC(N)=O)NC(=O)[C@H](CO)NC(=O)[C@H](CO)NC(=O)[C@H](Cc1c[nH]cn1)NC(=O)C(C)(C)NC(=O)[C@H](CC(C)C)NC(=O)[C@H](Cc1ccccc1)NC(=O)[C@H](CC(N)=O)NC(=O)[C@H](C)NC(=O)[C@H](CC(C)C)NC(=O)[C@H](CCCNC(=N)N)NC(=O)[C@H](CCC(N)=O)NC(=O)[C@@H](NC(=O)[C@H](C)NC(=O)[C@@H]1CSSC[C@H](NC(=O)[C@H](CCCCN)NC(=O)[C@@H](N)CCCCNC(=O)CC[C@H](NC(=O)CCCCCCCCCCCCCCCCC(=O)O)C(=O)O)C(=O)N[C@@H](CC(N)=O)C(=O)N[C@@H]([C@@H](C)O)C(=O)N[C@@H](C)C(=O)N[C@@H]([C@@H](C)O)C(=O)N1)[C@@H](C)O)C(=O)N[C@@H](CC(C)C)C(=O)N1CCC[C@H]1C(=O)N1CCC[C@H]1C(=O)N[C@H](C(=O)N[C@@H](CC(N)=O)C(=O)N[C@H](C(=O)NCC(=O)N[C@@H](CO)C(=O)N[C@@H](CC(N)=O)C(=O)N[C@H](C(=O)N[C@@H](Cc1ccc(O)cc1)C(N)=O)[C@@H](C)O)C(C)C)[C@@H](C)O [Peptide 129] (H-K([γGlu-C18 diacid])KCNTATCATQRLANFL[Aib]HSSNNFGPILPPTNVGSNTY-NH2; disulfide 3-8; N-terminus assumed) | >144 h | 29 % vehicle treated intake | 51 % vehicle treated intake | – |

Second part, led by results:

| Time taken to detect increase in fluorescence intensity [1] | Structure (SMILES) | Cummulative food intake (% vehicle treated intake) At 12 h [2] | Cummulative food intake (% vehicle treated intake) At 48 h [2] | Cummulative food intake (% vehicle treated intake) At 24 h ([2]; at 24 h) |
| --- | --- | --- | --- | --- |
| >144 h | CC[C@H](C)[C@H](NC(=O)[C@@H]1CCCN1C(=O)CNC(=O)[C@](C)(Cc1ccccc1)NC(=O)[C@H](CC(N)=O)NC(=O)[C@H](CC(N)=O)NC(=O)[C@H](CO)NC(=O)[C@H](CO)NC(=O)[C@H](Cc1c[nH]cn1)NC(=O)[C@H](CCCNC(=N)N)NC(=O)[C@H](CC(C)C)NC(=O)[C@H](Cc1ccccc1)NC(=O)[C@H](CC(N)=O)NC(=O)[C@H](C)NC(=O)[C@H](CC(C)C)NC(=O)[C@H](CCCNC(=N)N)NC(=O)[C@H](CCC(N)=O)NC(=O)[C@@H](NC(=O)[C@H](C)NC(=O)[C@@H]1CSSC[C@H](NC(=O)[C@H](CCCCN)NC(=O)[C@@H](N)CCCCNC(=O)CC[C@H](NC(=O)CCCCCCCCCCCCCCCCC(=O)O)C(=O)O)C(=O)N[C@@H](CC(N)=O)C(=O)N[C@@H]([C@@H](C)O)C(=O)N[C@@H](C)C(=O)N[C@@H]([C@@H](C)O)C(=O)N1)[C@@H](C)O)C(=O)N[C@@H](CC(C)C)C(=O)N1CCC[C@H]1C(=O)N1CCC[C@H]1C(=O)N[C@H](C(=O)N[C@@H](CCC(=O)O)C(=O)N[C@H](C(=O)NCC(=O)N[C@@H](CO)C(=O)N[C@@H](CC(N)=O)C(=O)N[C@H](C(=O)N[C@@H](Cc1ccc(O)cc1)C(N)=O)[C@@H](C)O)C(C)C)[C@@H](C)O [Peptide 15, K(γE-C18diacid)K[CNTATC]ATQRLANFLRHSSNN(αMePhe)GPILPPTEVGSNTY-amide] (H-K([γGlu-C18 diacid])KCNTATCATQRLANFLRHSSNN[αMeF]GPILPPTEVGSNTY-NH2; disulfide 3-8; N-terminus assumed) | – | 51 % vehicle treated intake | – |
| >144 h | CC[C@H](C)[C@H](NC(=O)[C@@H]1CCCN1C(=O)CNC(=O)[C@](C)(Cc1ccccc1)NC(=O)[C@H](CC(N)=O)NC(=O)[C@H](CC(N)=O)NC(=O)[C@H](CO)NC(=O)[C@H](CO)NC(=O)[C@H](Cc1c[nH]cn1)NC(=O)[C@H](CCCNC(=N)N)NC(=O)[C@H](CC(C)C)NC(=O)[C@H](Cc1ccccc1)NC(=O)[C@H](CCC(=O)O)NC(=O)[C@H](C)NC(=O)[C@H](CC(C)C)NC(=O)[C@H](CCCNC(=N)N)NC(=O)[C@H](CCC(N)=O)NC(=O)[C@@H](NC(=O)[C@H](C)NC(=O)[C@@H]1CSSC[C@H](NC(=O)[C@H](CCCCN)NC(=O)[C@@H](N)CCCCNC(=O)CC[C@H](NC(=O)CCCCCCCCCCCCCCCCC(=O)O)C(=O)O)C(=O)N[C@@H](CC(N)=O)C(=O)N[C@@H]([C@@H](C)O)C(=O)N[C@@H](C)C(=O)N[C@@H]([C@@H](C)O)C(=O)N1)[C@@H](C)O)C(=O)N[C@@H](CC(C)C)C(=O)N1CCC[C@H]1C(=O)N1CCC[C@H]1C(=O)N[C@H](C(=O)N[C@@H](CC(N)=O)C(=O)N[C@H](C(=O)NCC(=O)N[C@@H](CO)C(=O)N[C@@H](CC(N)=O)C(=O)N[C@H](C(=O)N[C@@H](Cc1ccc(O)cc1)C(N)=O)[C@@H](C)O)C(C)C)[C@@H](C)O [Peptide 12, K(γE-C18diacid)K[CNTATC]ATQRLAEFLRHSSNN(αMePhe)GPILPPTNVGSNTY-amide] (H-K([γGlu-C18 diacid])KCNTATCATQRLAEFLRHSSNN[αMeF]GPILPPTNVGSNTY-NH2; disulfide 3-8; N-terminus assumed) | 9.4 % vehicle treated intake | – | 7.5 % vehicle treated intake |

Reference: patent publication US12371464B2, “Polypeptides and uses thereof” (MEDIMMUNE LIMITED, priority 2020, dated 2025)
